Measurements published in US4368200A, “Heterocyclic derivatives of (4-phenyl-piperazine-1-yl-aryloxymethyl-1,3-dioxolan-2-yl)-methyl-1H-imi dazoles and 1H-1,2,4-triazoles” (Janssen Pharmaceutica N.V., priority 1981, dated 1983).

Tested on: Candida albicans
Assay: Experiment A: activity against vaginal candidosis in rats
Type: in vivo, Female Wistar rats
Details: po, 336 h, orally once a day for two days starting from the day of infection, active at the 14th day after infection, read-out: Vaginal candidosis in rats: lowest effective dose in mg/kg orally
Experimental: Female Wistar rats of ±100 g body weight are used. They are ovariectomized and hysterectomized and after three weeks of recovery, 100 μg of oestradiol undecylate in sesame oil is given subcutaneously once a week for 3 consecutive weeks. The thus induced pseudo-oestrus is controlled by microscopic examination of vaginal smears. Food and water are left available ad libitum. The rats are infected intravaginally with 8.10^5 cells of Candida albicans, grown on Sabouraud broth for 48 hours at 37° C. and diluted with saline. The data of infection varies from day +25 to day +32 after surgical intervention, depending on the appearance of signs of induced pseudo-oestrus. The drugs under investigation are administered orally once a day for two days starting from the day of infection. For each experiment there are placebo treated controls. The results are assessed by taking vaginal smears with sterile swabs on several days after the infection. The swabs are put into Sabouraud broth in petri-dishes and incubated for 48 hours at 37° C. If no growth of Candida albicans occurs, i.e., when the animals are negative at the end of the experiment, this is due to drug administration because it never happens in placebo-treated controls. The table below gives the lowest oral dose of the drug under investigation which is found active at the 14th day after infection.

| Compound | minimal effective dose [mg/kg] |
| --- | --- |
| Clc1ccc([C@@]2(Cn3ccnc3)OC[C@H](COc3ccc(N4CCN(c5ccc(-n6cccn6)cc5)CC4)cc3)O2)c(Cl)c1 (relative stereo) | 2.5 |
| Clc1ccc([C@@]2(Cn3cncn3)OC[C@H](COc3ccc(N4CCN(c5ccc(-n6cccn6)cc5)CC4)cc3)O2)c(Cl)c1 (relative stereo) | 2.5 |
| Clc1ccc([C@@]2(Cn3ccnc3)OC[C@H](COc3ccc(N4CCN(c5ccc(-n6ccnc6)cc5)CC4)cc3)O2)c(Cl)c1 (relative stereo) | 1.25 |
| Clc1ccc([C@@]2(Cn3cncn3)OC[C@H](COc3ccc(N4CCN(c5ccc(-n6ccnc6)cc5)CC4)cc3)O2)c(Cl)c1 (relative stereo) | 1.25 |
| Clc1ccc([C@@]2(Cn3ccnc3)OC[C@H](COc3ccc(N4CCN(c5ccc(-n6cncn6)cc5)CC4)cc3)O2)c(Cl)c1 (relative stereo) | 0.63 |
| Clc1ccc([C@@]2(Cn3cncn3)OC[C@H](COc3ccc(N4CCN(c5ccc(-n6cncn6)cc5)CC4)cc3)O2)c(Cl)c1 (relative stereo) | 0.63 |
| CSc1ncn(-c2ccc(N3CCN(c4ccc(OC[C@H]5CO[C@](Cn6ccnc6)(c6ccc(Cl)cc6Cl)O5)cc4)CC3)cc2)n1 (relative stereo) | 2.5 |
| CSc1ncn(-c2ccc(N3CCN(c4ccc(OC[C@H]5CO[C@](Cn6cncn6)(c6ccc(Cl)cc6Cl)O5)cc4)CC3)cc2)n1 (relative stereo) | 1.25 |
| CSc1nc(C)n(-c2ccc(N3CCN(c4ccc(OC[C@H]5CO[C@](Cn6ccnc6)(c6ccc(Cl)cc6Cl)O5)cc4)CC3)cc2)n1 (relative stereo) | 2.5 |
| CSc1nc(C)n(-c2ccc(N3CCN(c4ccc(OC[C@H]5CO[C@](Cn6cncn6)(c6ccc(Cl)cc6Cl)O5)cc4)CC3)cc2)n1 (relative stereo) | ≤ 0.63 |
| CSc1nnc(C)n1-c1ccc(N2CCN(c3ccc(OC[C@H]4CO[C@](Cn5cncn5)(c5ccc(Cl)cc5Cl)O4)cc3)CC2)cc1 (relative stereo) | 2.5 |
| CSc1nncn1-c1ccc(N2CCN(c3ccc(OC[C@H]4CO[C@](Cn5cncn5)(c5ccc(Cl)cc5Cl)O4)cc3)CC2)cc1 (relative stereo) | 2.5 |
| Cc1ncnn1-c1ccc(N2CCN(c3ccc(OC[C@H]4CO[C@](Cn5cncn5)(c5ccc(Cl)cc5Cl)O4)cc3)CC2)cc1 (relative stereo) | 0.63 |
| Cc1nn(C)c(=O)n1-c1ccc(N2CCN(c3ccc(OC[C@H]4CO[C@](Cn5ccnc5)(c5ccc(Cl)cc5Cl)O4)cc3)CC2)cc1 (relative stereo) | 0.63 |
| Cc1nn(C)c(=O)n1-c1ccc(N2CCN(c3ccc(OC[C@H]4CO[C@](Cn5cncn5)(c5ccc(Cl)cc5Cl)O4)cc3)CC2)cc1 (relative stereo) | ≤ 0.63 |
| Clc1ccc([C@@]2(Cn3cncn3)OC[C@H](COc3ccc(N4CCN(c5ccc(-n6cnnn6)cc5)CC4)cc3)O2)c(Cl)c1 (relative stereo) | < 2.5 |
| Cn1ncn(-c2ccc(N3CCN(c4ccc(OC[C@H]5CO[C@](Cn6cncn6)(c6ccc(Cl)cc6Cl)O5)cc4)CC3)cc2)c1=O (relative stereo) | ≥ 0.63 |
| Cn1ncn(-c2ccc(N3CCN(c4ccc(OC[C@H]5CO[C@](Cn6ccnc6)(c6ccc(Cl)cc6Cl)O5)cc4)CC3)cc2)c1=O (relative stereo) | 1 |
| CCn1ncn(-c2ccc(N3CCN(c4ccc(OC[C@H]5CO[C@](Cn6ccnc6)(c6ccc(Cl)cc6Cl)O5)cc4)CC3)cc2)c1=O (relative stereo) | 1.25 |
| CCCn1nc(C)n(-c2ccc(N3CCN(c4ccc(OC[C@H]5CO[C@](Cn6ccnc6)(c6ccc(Cl)cc6Cl)O5)cc4)CC3)cc2)c1=O (relative stereo) | 0.63 |
| CCn1nc(C)n(-c2ccc(N3CCN(c4ccc(OC[C@H]5CO[C@](Cn6cncn6)(c6ccc(Cl)cc6Cl)O5)cc4)CC3)cc2)c1=O (relative stereo) | < 0.63 |
| CCCn1nc(C)n(-c2ccc(N3CCN(c4ccc(OC[C@H]5CO[C@](Cn6cncn6)(c6ccc(Cl)cc6Cl)O5)cc4)CC3)cc2)c1=O (relative stereo) | 0.5 |
| CCn1ncn(-c2ccc(N3CCN(c4ccc(OC[C@H]5CO[C@](Cn6cncn6)(c6ccc(Cl)cc6Cl)O5)cc4)CC3)cc2)c1=O (relative stereo) | ≥ 0.16 |
| CCn1nc(C)n(-c2ccc(N3CCN(c4ccc(OC[C@H]5CO[C@](Cn6ccnc6)(c6ccc(Cl)cc6Cl)O5)cc4)CC3)cc2)c1=O (relative stereo) | 1.25 |
